Measurements as given in patent US12060330B2, “Therapeutic indazoles” (priority 2017, dated 2024).
Entries after “also recorded” stand apart in the source; their conditions may differ.

These compounds were tested on DG167-resistant M. tuberculosis mutants.
Format: cell-based

Structure (SMILES) | susceptibility of DG167-resistant mutants
COc1nc2ccc(Br)cc2cc1[C@@H](c1ccccc1)[C@@](O)(CCN(C)C)c1cccc2ccccc12 [BDQ, bedaquiline] | remained susceptible
CC[C@@H](CO)NCCN[C@@H](CC)CO [EMB, ethambutol] | remained susceptible
CCc1cc(C(N)=S)ccn1 [ETH, ethionamide] | remained susceptible
NNC(=O)c1ccncc1 [INH, isoniazid, reference compound] | remained susceptible
O=[N+]([O-])c1cn2c(n1)OC[C@@H](OCc1ccc(OC(F)(F)F)cc1)C2 [PA824] | remained susceptible
CC(C)=CCC/C(C)=C/CNCCNC1C2CC3CC(C2)CC1C3 (stereo not shown) [SQ109] | remained susceptible

Each compound was assayed on mycolic acid biosynthesis.
Format: cell-based, M. tuberculosis

Structure (SMILES) | inhibition of mycolic acid biosynthesis
CCCCS(=O)(=O)Nc1ccc2cnn(C)c2c1 [DG167, N-(1-methyl-1H-indazol-6-yl)butane-1-sulfonamide] | dose-dependent inhibition; also recorded: resistant to DG167-mediated inhibition of mycolic acid biosynthesis
